US7947854B2, “Bis-cationic compounds and use thereof” (The University of Sydney, priority 2003, dated 2011)
In brackets after ≈: the same amount, converted by molar mass. Read-outs that look alike come from different tables or passages of the source.

Tests used:
Assay type in all cases: cell-based
M. canis = experiment: Susceptibility of dermatophytes, broth microdilution NCCLS M38-P; conditions: for MIC: Microsporum canis
Method: (§1) Isolates were tested using the method described in the National Committee for Clinical Laboratory Standards (NCCLS) document M38-P for filamentous fungi, with dermatophyte specific modifications described by Fernández-Torres et al, Current topics in Medical Mycology, 14-19 Feb. 1999.
(§2) Five dermatophyte isolates were, namely; T. rubrum, T. mentagrophytes, T. tonsurans, M. canis and M. gypseum, all of which produce lipases and some, phospholipase. These isolates were tested by the broth microdilution method according to NCCLS document M38-P, for activity against selected antifungal agents. In addition, ten randomly selected isolates of T. tonsurans were also tested. All isolates were maintained on SDA at 28° C. Candida parapsilosis (ATCC 20019) was used as the reference control is organism.
(§3) The microdilution plates used were a single lot of RPMI 1640 basal medium (JRH bioScience Inc. Lenexa, Kans., USA) with L-glutamine and without sodium bicarbonate, buffered to pH 7.0, at 25° C., with 0.165 M (MOPS) morpholinepropanesulfonic acid (Sigma).
(§4) Powdered drugs were dissolved in 100% dimethyl sulfoxide (DMSO), at concentrations 100 times higher than the final test concentration. All compounds were prepared in 100% (DMSO). For ITRA and TRB, two-fold drug dilutions were prepared in 100% DMSO at 100 times the final concentration, followed by further dilution 1:50 in RPMI medium, to yield 2× the final strength required for the test.
(§5) Fungal cultures were subcultured onto Potato Dextrose Agar and grown at 28° C. for 7-10 days. Fungal suspensions were covered with 5 ml of distilled water, and then colonies were scraped off with cotton tipped swabs. The resulting mixture of conidia and hyphae elements was withdrawn, transferred to a sterile tube and then vortexed with glass beads. After the particles settled, the upper homogeneous suspension was collected and its density adjusted by a densitometer to a 0.5 McFarland standard at the wavelength of 530 nm (80-85% transmittance). These stock suspensions were then diluted 1:50 with RPMI medium to obtain final working inoculum concentration ranging from 0.3×10^4 to 9×10^4 CFU/ml. Inoculum quantification was performed by plating 100 μl of the 1:1000 dilution of the adjusted inoculum on SDA plates, incubated at 28° C., and after 7 days of incubation, the colonies were counted.
(§6) Testing was based on NCCLS M38-P document for testing filamentous moulds. Testing was carried out in sterile 96-well flat bottomed microtitre plate. Columns 1 and 3 to 12 were filled with 100 μl of RPMI medium, leaving column 2 unfilled. Columns 1, 2 and 3 were filled with 100 μl of 2× drug concentration. Serial dilutions were then made by transferring 100 μl from column 3 to each column up to column 11, and 100 μl from column 11 was discarded. Column 12 served as drug free growth control. Finally, 100 μl of inoculum suspension was added to all wells except column 1, which acted as sterility control (Columns 1 and 12 served as sterility and growth control respectively). Plates were incubated at 28° C. for 7 days, and read at 3 days and 7 days of incubation. All testing was performed in duplicate, on three separate occasions.
(§7) Growth in microtitre trays were read by visual inspection by using an illuminated-reversed mirror. Growth in each well was compared with the “growth control” drug free well. The MIC end point for all the drugs was chosen to be the first well with 100% growth inhibition (i.e. the lowest drug concentration inhibiting growth).

M. gypseum = experiment: as above; conditions: for MIC: Nannizzia gypsea
Method: as §1, §2, §3, §4, §5, §6, §7

T. mentagrophytes = experiment: as above; conditions: 100% growth inhibition, 28° C.; for MIC: Trichophyton mentagrophytes
Method: as §1, §2, §3, §4, §5, §6, §7

T. rubrum = experiment: as above; conditions: for MIC: Trichophyton rubrum
Method: as §1, §2, §3, §4, §5, §6, §7

T. tonsurans = experiment: as above; conditions: for MIC: Trichophyton tonsurans
Method: as §1, §2, §3, §4, §5, §6, §7

[1] = tested on: ten randomly selected isolates of T. tonsurans; experiment: Susceptibility of ten T. tonsurans isolates, broth microdilution NCCLS M38-P; conditions: for MIC: Trichophyton tonsurans
Method: as §1, §2, §3, §4, §5, §6, §7

For `CCC(C)n1ncn(-c2ccc(N3CCN(c4ccc(OCC5COC(Cn6cncn6)(c6ccc(Cl)cc6Cl)O5)cc4)CC3)cc2)c1=O` (stereo not shown) [Itraconazole], which “MIC Range, M. canis” value (M. canis; 100% growth inhibition, 28° C.) is on record?
Its value is 0.125 to 2.0 µg/mL.

And the MIC (M. canis; 100% growth inhibition, 28° C., read-out: MIC GM, M. canis)?
Its MIC is 0.42 µg/mL (≈ 0.595 µM).

And the MIC (M. canis; 100% growth inhibition, 28° C., read-out: MIC Mean, M. canis)?
Its MIC is 0.63 µg/mL (≈ 0.893 µM).

What about the MIC (M. canis; Table 9, read-out: MIC M. canis) of the same molecule?
The MIC was 0.6 µg/mL (≈ 0.85 µM).

And the “MIC Range, M. gypseum” value (M. gypseum; 100% growth inhibition, 28° C.)?
The value was 0.25 to 2.0 µg/mL.

And the MIC (M. gypseum; 100% growth inhibition, 28° C., read-out: MIC GM, M. gypseum)?
Its MIC is 0.74 µg/mL (≈ 1.05 µM).

And the MIC (M. gypseum; 100% growth inhibition, 28° C., read-out: MIC Mean, M. gypseum)?
The MIC was 0.93 µg/mL (≈ 1.32 µM).

And the MIC (M. gypseum; Table 9, read-out: MIC M. gypseum)?
The MIC was 0.9 µg/mL (≈ 1.28 µM).

What about the “MIC Range, T. mentagrophyte” value (T. mentagrophytes) of the same molecule?
Its value is 0.06 to 1.0 µg/mL.

What about the MIC (T. mentagrophytes; read-out: MIC GM, T. mentagrophyte) of the same molecule?
Its MIC is 0.26 µg/mL (≈ 0.368 µM).

What about the MIC (T. mentagrophytes; read-out: MIC Mean, T. mentagrophyte) of the same molecule?
The MIC was 0.355 µg/mL (≈ 0.503 µM).

And the “MIC Range, T. rubrum” value (T. rubrum; 100% growth inhibition, 28° C.)?
The value was 0.03 to 1.0 µg/mL.

And the MIC (T. rubrum; 100% growth inhibition, 28° C., read-out: MIC GM, T. rubrum)?
Its MIC is 0.171 µg/mL (≈ 0.242 µM).

And the MIC (T. rubrum; 100% growth inhibition, 28° C., read-out: MIC Mean, T. rubrum)?
The MIC was 0.276 µg/mL (≈ 0.391 µM).

And the MIC (T. rubrum; Table 9, read-out: MIC T. rubrum)?
Its MIC is 0.3 µg/mL (≈ 0.425 µM).

What about the “MIC Range, T. tonsurans” value (T. tonsurans; 100% growth inhibition, 28° C.) of the same molecule?
Its value is 0.25 to 2.0 µg/mL.

What about the MIC (T. tonsurans; 100% growth inhibition, 28° C., read-out: MIC GM, T. tonsurans) of the same molecule?
The MIC was 0.84 µg/mL (≈ 1.19 µM).

What about the MIC (T. tonsurans; 100% growth inhibition, 28° C., read-out: MIC Mean, T. tonsurans) of the same molecule?
Its MIC is 1.06 µg/mL (≈ 1.5 µM).

And the MIC (T. tonsurans; Table 9, read-out: MIC T. tonsurans)?
Its MIC is 1.1 µg/mL (≈ 1.56 µM).

And the “MIC Range” value ([1]; T. tonsurans 1)?
Its value is 0.03 to 0.125 µg/mL.

And the “MIC Range” value ([1]; T. tonsurans 2)?
The value was 0.125 to 2.0 µg/mL.

What about the “MIC Range” value ([1]; T. tonsurans 4) of the same molecule?
Its value is 0.5 µg/mL (≈ 0.709 µM).

What about the “MIC Range” value ([1]; T. tonsurans 5) of the same molecule?
Its value is 0.25 to 0.5 µg/mL.

What about the “MIC Range” value ([1]; T. tonsurans 6) of the same molecule?
Its value is 0.25 to 2.0 µg/mL.

And the “MIC Range” value ([1]; T. tonsurans 7)?
The value was 0.5 to 1.0 µg/mL.

And the “MIC Range” value ([1]; T. tonsurans 8)?
Its value is 0.25 to 2.0 µg/mL.

And the “MIC Range” value ([1]; T. tonsurans 9)?
Its value is 0.125 to 1.0 µg/mL.

And the “MIC Range” value ([1]; T. tonsurans 10)?
Its value is 0.25 to 1.0 µg/mL.

And the “MIC Range” value ([1]; T.tonsurans 3)?
The value was 0.06 to 0.5 µg/mL.

What about the MIC ([1]; T. tonsurans 1, read-out: MIC GM) of the same molecule?
Its MIC is 0.12 µg/mL (≈ 0.17 µM).

And the MIC ([1]; T. tonsurans 2, read-out: MIC GM)?
Its MIC is 0.397 µg/mL (≈ 0.563 µM).

And the MIC ([1]; T. tonsurans 2, read-out: MIC Mean)?
The MIC was 0.604 µg/mL (≈ 0.856 µM).

What about the MIC ([1]; T. tonsurans 4, read-out: MIC GM) of the same molecule?
The MIC was 0.5 µg/mL (≈ 0.709 µM).

What about the MIC ([1]; T. tonsurans 4, read-out: MIC Mean) of the same molecule?
Its MIC is 0.5 µg/mL (≈ 0.709 µM).

What about the MIC ([1]; T. tonsurans 5, read-out: MIC GM) of the same molecule?
Its MIC is 0.44 µg/mL (≈ 0.624 µM).

And the MIC ([1]; T. tonsurans 5, read-out: MIC Mean)?
The MIC was 0.46 µg/mL (≈ 0.652 µM).

What about the MIC ([1]; T. tonsurans 6, read-out: MIC GM) of the same molecule?
The MIC was 0.71 µg/mL (≈ 1.01 µM).

And the MIC ([1]; T. tonsurans 6, read-out: MIC Mean)?
Its MIC is 0.96 µg/mL (≈ 1.36 µM).

What about the MIC ([1]; T. tonsurans 7, read-out: MIC GM) of the same molecule?
Its MIC is 0.56 µg/mL (≈ 0.794 µM).

And the MIC ([1]; T. tonsurans 7, read-out: MIC Mean)?
The MIC was 0.58 µg/mL (≈ 0.822 µM).

And the MIC ([1]; T. tonsurans 8, read-out: MIC GM)?
The MIC was 0.79 µg/mL (≈ 1.12 µM).

What about the MIC ([1]; T. tonsurans 8, read-out: MIC Mean) of the same molecule?
Its MIC is 1.08 µg/mL (≈ 1.53 µM).

What about the MIC ([1]; T. tonsurans 9, read-out: MIC GM) of the same molecule?
Its MIC is 0.445 µg/mL (≈ 0.631 µM).

And the MIC ([1]; T. tonsurans 9, read-out: MIC Mean)?
Its MIC is 0.52 µg/mL (≈ 0.737 µM).

And the MIC ([1]; T. tonsurans 10, read-out: MIC GM)?
Its MIC is 0.445 µg/mL (≈ 0.631 µM).

What about the MIC ([1]; T. tonsurans 10, read-out: MIC Mean) of the same molecule?
The MIC was 0.5 µg/mL (≈ 0.709 µM).

And the MIC ([1]; T.tonsurans 3, read-out: MIC GM)?
The MIC was 0.196 µg/mL (≈ 0.278 µM).

And the MIC ([1]; T.tonsurans 3, read-out: MIC Mean)?
Its MIC is 0.27 µg/mL (≈ 0.383 µM).

What about the MIC ([1]; read-out: MIC Mean, T. tonsurans 1) of the same molecule?
The MIC was 0.21 µg/mL (≈ 0.298 µM).
